The source of these data is US20100028278A1, “USE OF CHROMAN-4-ONE DERIVATIVES” (Merck Patent Gesellschaft MIT Beschrankter Haftung, priority 2007, published 2010).

The structures appear in SMILES notation.

This test concerns Normal human adipocytes. As to the kind of experiment: Assessment of lipid synthesis in adipocytes in suspension (anti-cellulitis efficacy test). The test is classed as cell-based. To be noted: radioactively labelled acetate (2-C14) into lipids, versus comparative sample. The procedure:
Normal human adipocytes are isolated starting from biopsies (plastic surgery). Immediately after receipt, the samples are incubated for 30 min at 37° C. in the presence of collagenase (supplied by Sigma). The suspension of adipocytes is then rinsed and diluted three-fold in the culture medium, The culture medium is formed, for example, from the following: • 1.87 mg/ml of bicarbonate (supplied by Life Technologies), • 25 IU/ml/25 μg/ml of penicillin/streptomycin (supplied by Life Technologies), • 2 mM of glutamine (supplied by Life Technologies), • 100% (vol./vol.) MEM (supplied by Merck Eurolab) and • 0.5% (wt./vol.) bovine albumin (supplied by Sigma).
The adipocytes in suspension are incubated for 4 h at 37° C. in the presence of various concentrations of a compound of the formula I. […]
After incubation for 4 h, the lipids are extracted by the procedure described by Bligh and Dyer, Can. J. Biochem. Physiol., 37, 922 (1959), evaporation is carried out under nitrogen, and the introduced radioactivity is quantified by liquid scintillation (reference liquid scintillation instrument LKB 1210, supplied by Rackbeta).
Any interaction between the radioactively labelled acetate and a compound of the formula I is evaluated in order to confirm the specificity of the labelling by incubating the highest concentration of the compound of the formula I with acetate alone.

Regarding `C/C=C/C/C=C/CCC(=O)[C@H]1O[C@H]1C(N)=O` [Cerulin], the “inhibition of the incorporation of acetate” value was found to be 95%.
